Measured values taken from patent publication US20030068321A1, “Methods of effecting neuronal activity” (Guilford Pharmaceuticals, Inc., priority 2001, published 2003).
“Also recorded” adds a separate entry of the source. Peptide text beside a SMILES is read from it.

System: chick sensory neurons from dorsal root ganglia
Test: Chick dorsal root ganglion cultures and neurite outgrowth
Format: cell-based
Details: 1 mM concentration; whole DRG explants, forty-eight hours after drug treatment
Protocol: Dorsal root ganglia were dissected from chick embryos of ten-day gestation. Whole ganglion explants were cultured on thin layer Matrigel-coated 12 well plates with Liebovitz L15 plus high glucose media supplemented with 2 mM glutamine and 10% fetal calf serum, and also containing 10 μM cytosine […] (Ara C) at 37° C. in an environment containing 5% CO2. Twenty-four hours later, the DRGs were treated with various concentrations of nerve growth factor, immunophilin ligands or combinations of NFG plus drugs. Forty-eight hours after drug treatment, the ganglia were visualized under phase contrast or Hoffman Modulation contrast with a Zeiss Axiovert inverted microscope. Photomicrographs of the explants were made, and neurite outgrowth was quantitated. Neurites longer that the DRG diameter were counted as positive, with total number of neurites quantitated per each experimental condition. Three to four DRGs are cultured per well, and each treatment was performed in duplicate.
The maximal increase in the number of processes, their length and branching is quite similar at maximally effective […] of the cyclophilin ligands and of NGF (100 ng/ml). With progressively increasing concentrations of the various drugs, one observes a larger number of processes, more extensive branching and a grater length of individual processes.

Row | Structure (SMILES) | neurotrophic effects (promotion of neurite outgrowth in chick sensory neurons)
1 | CC(=O)N1CCC[C@H]1C(=O)NCC(=O)N1CCC[C@H]1C(=O)N[C@@H](Cc1ccccc1)C(N)=O [compound 1] (Ac-PGPF-NH2) | promotion of neurite outgrowth; also recorded: powerful neurotrophic effects
2 | CC(=O)N1CCC[C@H]1C(=O)N[C@@H](C)C(=O)N1CCC[C@H]1C(=O)N[C@@H](C)C(N)=O [compound 2] (Ac-PAPA-NH2) | promotion of neurite outgrowth; also recorded: potent neurotrophic effects
